Test results from publication PMC9463526 (Journal of Pharmaceutical Analysis, 2022).

Key:
[1] = Analyte stability in brain homogenate; type: physicochemical, human; conditions: for Freeze-thaw stability, Accuracy / Freeze-thaw stability, Mean concentration / Freeze-thaw stability, Difference: 3 cycles; for Freeze-thaw stability, Difference / Benchtop stability, Difference / Processed sample stability, Difference / Autosampler stability (5 °C), Difference / Long-term stability (−20 °C), Difference: vs freshly processed QC; for Benchtop stability, Accuracy / Benchtop stability, Mean concentration / Benchtop stability, Difference: 6 h; for Processed sample stability, Accuracy / Processed sample stability, Mean concentration / Processed sample stability, Difference: 22 h; for Autosampler stability (5 °C), Accuracy / Autosampler stability (5 °C), Mean concentration / Autosampler stability (5 °C), Difference: 96 h; for Long-term stability (−20 °C), Mean concentration / Long-term stability (−20 °C), Difference / Long-term stability (−20 °C), Accuracy: 39 days
Protocol: The stability of the analytes was studied under various storage and processing conditions. […] Short- and long-term stability studies of all analytes were conducted in human blank plasma and brain homogenate under several storage conditions. Analyte stability in biological matrices was analyzed using freshly prepared calibration standards and QC samples. The percentage difference between the stability and freshly processed QC was also assessed. Re-injection reproducibility was evaluated within the sample stability period in the autosampler. Analytes were considered stable if the accuracy at each level was ±15.0% of the nominal value. Additionally, the difference from corresponding comparison QC samples must be within ±15.0%.

[2] = design: method as in investigational brochures; conditions: ref investigational brochures; cited from earlier work
[3] = Pilot pharmacokinetic studies in mice (blood-brain barrier); type: in vivo
[4] = Tumor-to-plasma partition coefficients (Kp, Kp,uu) in GBM patients; type: in vivo, human; conditions: for Unbound tumor-to-plasma partition coefficient (Kp,uu), fold lower than abemaciclib: both GBM regions, five patients
Protocol: Blank brain and clinical brain tumor tissue homogenates were prepared at 1:9 (m/V) ratio with PBS. The samples were homogenized at a speed of 6.00 m/s for 40 s for three cycles using a Bead Ruptor Elite homogenizer (Omni International, Kennesaw, GA, USA). Plasma was used as a surrogate matrix when preparing calibration curves for brain and brain tumor homogenates and CSF as well as for the PBS fraction after sample dialysis. To minimize matrix differences, all plasma samples were spiked with PBS, while all non-plasma samples were spiked with plasma. Extraction of the analyte and IS was facilitated by protein precipitation using methanol-containing IS precipitation solution. Samples (70 μL) spiked with PBS or plasma were precipitated using 400 μL of IS precipitation solution. After centrifugation at 12,000 r/min for 10 min at 4 °C, the supernatant was transferred for LC-MS/MS analysis.
Unbound drug levels in the actual plasma and brain tumor tissue were measured using dialysis for 16 h to reach equilibrium. The mean of fraction unbound values determined in five patient samples was calculated.
The validated bioanalytical method was employed to investigate analytes pharmacokinetics in the plasma, brain tumor, and CSF in GBM patients (ClinicalTrials.gov identifier: NCT04391595). The protocol was reviewed and approved by the Institutional Review Board of the Barrow Neurological Institute, St. Joseph's Hospital and Medical Center (Phoenix, AZ, USA). All patients enrolled in the trial provided written informed consent. […] Blood, CSF, and GBM tissue (including gadolinium-contrast enhancing and non-enhancing regions) samples were obtained intra-operatively from each patient on the […] on the planned operation day. Blood was centrifuged at 4 °C and 3,000 r/min for 10 min; plasma was subsequently collected. Brain tumors were resected 7–9 h after the last dose was administered. Once resected, the tissue samples were rinsed with PBS, paper dried, and freshly frozen in liquid nitrogen. […]

| Freeze-thaw stability, Accuracy ([1]; HQC 400.0 nM) | Freeze-thaw stability, Mean concentration ([1]; HQC 400.0 nM) | Freeze-thaw stability, Difference ([1]; HQC 400.0 nM) | Freeze-thaw stability, Accuracy ([1]; LQC 0.6 nM) | Freeze-thaw stability, Mean concentration ([1]; LQC 0.6 nM) | Freeze-thaw stability, Difference ([1]; LQC 0.6 nM) | Benchtop stability, Accuracy ([1]; HQC 400.0 nM) | Benchtop stability, Mean concentration ([1]; HQC 400.0 nM) | Benchtop stability, Difference ([1]; HQC 400.0 nM) | Benchtop stability, Accuracy ([1]; LQC 0.6 nM) | Benchtop stability, Mean concentration ([1]; LQC 0.6 nM) | Benchtop stability, Difference ([1]; LQC 0.6 nM) | Processed sample stability, Accuracy ([1]; HQC 400.0 nM) | Processed sample stability, Mean concentration ([1]; HQC 400.0 nM) | Processed sample stability, Difference ([1]; HQC 400.0 nM) | Processed sample stability, Accuracy ([1]; LQC 0.6 nM) | Processed sample stability, Mean concentration ([1]; LQC 0.6 nM) | Processed sample stability, Difference ([1]; LQC 0.6 nM) | Autosampler stability (5 °C), Accuracy ([1]; HQC 400.0 nM) | Autosampler stability (5 °C), Mean concentration ([1]; HQC 400.0 nM) | Compound | further results |
| --- | --- | --- | --- | --- | --- | --- | --- | --- | --- | --- | --- | --- | --- | --- | --- | --- | --- | --- | --- | --- | --- |
| 103.2% | 412.9 nM | 1.1% | 101.4% | 0.608 nM | −7.9% | 101.7% | 406.7 nM | −1.5% | 110.2% | 0.661 nM | 0.2% | 102.3% | 409.3 nM | −0.9% | 112.3% | 0.674 nM | 2.1% | 105.2% | 420.9 nM | Cn1nccc1Nc1nccc(-c2cc3c(s2)C(C)(C)N(CCN2CCOCC2)C3=O)n1 [LY3214996] | Autosampler stability (5 °C), Difference ([1]; HQC 400.0 nM): 3.3%; Autosampler stability (5 °C), Accuracy ([1]; LQC 0.6 nM): 111.2%; Autosampler stability (5 °C), Mean concentration ([1]; LQC 0.6 nM): 0.667 nM; Autosampler stability (5 °C), Difference ([1]; LQC 0.6 nM): 4.4%; Long-term stability (−20 °C), Mean concentration ([1]; HQC 400.0 nM): 422.7 nM; Long-term stability (−20 °C), Difference ([1]; HQC 400.0 nM): 3.5%; Long-term stability (−20 °C), Accuracy ([1]; LQC 0.6 nM): 103.6%; Long-term stability (−20 °C), Mean concentration ([1]; LQC 0.6 nM): 0.622 nM; Long-term stability (−20 °C), Difference ([1]; LQC 0.6 nM): −5.9%; pKa (strongest basic) [2]: 6.21; Crossing of the blood-brain barrier [3]: may cross the blood-brain barrier |
| 101.3% | 405.1 nM | −6.8% | 98.3% | 0.590 nM | −9.4% | 97.0% | 388.2 nM | −5.9% | 102.4% | 0.614 nM | 6.9% | 100.2% | 400.9 nM | −2.8% | 105.4% | 0.632 nM | 10.0% | 105.4% | 421.6 nM | Cc1nc2c(F)cc(-c3nc(Nc4ccc(CN5CCNCC5)cn4)ncc3F)cc2n1C(C)C [M2] | Autosampler stability (5 °C), Difference ([1]; HQC 400.0 nM): 6.2%; Autosampler stability (5 °C), Accuracy ([1]; LQC 0.6 nM): 102.4%; Autosampler stability (5 °C), Mean concentration ([1]; LQC 0.6 nM): 0.615 nM; Autosampler stability (5 °C), Difference ([1]; LQC 0.6 nM): 13.5%; Long-term stability (−20 °C), Accuracy ([1]; HQC 400.0 nM): 103.4%; Long-term stability (−20 °C), Mean concentration ([1]; HQC 400.0 nM): 413.6 nM; Long-term stability (−20 °C), Difference ([1]; HQC 400.0 nM): −4.8%; Long-term stability (−20 °C), Accuracy ([1]; LQC 0.6 nM): 98.3%; Long-term stability (−20 °C), Mean concentration ([1]; LQC 0.6 nM): 0.590 nM; Long-term stability (−20 °C), Difference ([1]; LQC 0.6 nM): −9.5%; Unbound tumor-to-plasma partition coefficient (Kp,uu), fold lower than abemaciclib [4]: at least 3 fold; Total tumor-to-plasma partition coefficient (Kp), fold higher than M20 ([4]; gadolinium-contrast enhancing and non-enhancing GBM regions): > 2 fold |
| 108.7% | 434.9 nM | 1.4% | 108.5% | 0.651 nM | −1.5% | 93.7% | 375.0 nM | −4.4% | 100.0% | 0.6 nM | 2.3% | 97.8% | 391.1 nM | −0.2% | 100.5% | 0.603 nM | 2.7% | 100.3% | 401.3 nM | CCN1CCN(Cc2ccc(Nc3ncc(F)c(-c4cc(F)c5nc(CO)n(C(C)C)c5c4)n3)nc2)CC1 [M20] | Autosampler stability (5 °C), Difference ([1]; HQC 400.0 nM): 2.7%; Autosampler stability (5 °C), Accuracy ([1]; LQC 0.6 nM): 101.9%; Autosampler stability (5 °C), Mean concentration ([1]; LQC 0.6 nM): 0.612 nM; Autosampler stability (5 °C), Difference ([1]; LQC 0.6 nM): 10.3%; Long-term stability (−20 °C), Accuracy ([1]; HQC 400.0 nM): 112.0%; Long-term stability (−20 °C), Mean concentration ([1]; HQC 400.0 nM): 448.1 nM; Long-term stability (−20 °C), Difference ([1]; HQC 400.0 nM): 4.5%; Long-term stability (−20 °C), Accuracy ([1]; LQC 0.6 nM): 105.9%; Long-term stability (−20 °C), Mean concentration ([1]; LQC 0.6 nM): 0.635 nM; Long-term stability (−20 °C), Difference ([1]; LQC 0.6 nM): −3.9%; Unbound tumor-to-plasma partition coefficient (Kp,uu), fold lower than abemaciclib [4]: at least 3 fold |
